Assay [1] deals with mouse IgG (IgGM). The assay can be described thus: Binding kinetics to biotinylated IgG immobilized on optical biosensors (mouse IgG). The procedure: (§1) Biotinylated IgG was immobilized onto optical biosensors to enable high throughput kinetic analyses in microplate format. The IgG-binding behavior to the Hex nanocarrier in comparison to soluble SPAB at neutral and acidic pH was assessed.

Assay [2] concerns the target rabbit IgG (IgGR). The assay can be described thus: Binding kinetics to biotinylated IgG immobilized on optical biosensors (rabbit IgG). The procedure: as §1

As a reminder, the Kd is the equilibrium constant for the complex coming apart. A low value points to higher affinity.

In the case of “domain B of staphylococcal protein A [SPAB]”, the “stronger binding at neutral pH compared to pH 5.0” value in assay [1] was determined as 17 fold. For the same substance, the “affinities towards mouse IgG (in words)” value in assay [1] (neutral pH and pH 5.0) is reported as “nanomolar”. Also, the equilibrium dissociation constant (Kd) worked out at 0.47 ± 0.019 µM in assay [1] (pH 5.0), 0.0283 ± 0.0028 µM in assay [1] (pH 7.4), 0.255 ± 0.017 µM in assay [2] (pH 5.0) and 0.053 ± 0.002 µM in assay [2] (pH 7.4).

(Values after US11433138B2, “Nanocarriers and intracellular delivery of same” (Georgia Tech Research Corporation, priority 2016, dated 2022).)
